# Assay results as given in patent US8609653B2, “Azaindole compounds and methods for treating HIV” (priority 2011, dated 2013).
# Tested on: HIV
# Experiment: MT4 assay: antiviral HIV activity in MT-4 cells
# Type: cell-based
# Details: Human immunodeficiency virus 1, MT4, 96 h, read-out: HIV MT4 Assay IC50 (μM), HTLV-1 transformed cell line MT-4; read-out 96 hours later with cell titer glo; 10 point dose response
# Experimental: Antiviral HIV activity and cytotoxicity values for compounds of the invention from Table 1 were measured in parallel in the HTLV-1 transformed cell line MT-4 based on the method previously described (Hazen et al., 2007, In vitro antiviral activity of the novel, tyrosyl-based human immunodeficiency virus (HIV) type 1 protease inhibitor brecanavir (GW640385) in combination with other antiretrovirals and against a panel of protease inhibitor-resistant HIV (Hazen et al., “In vitro antiviral activity of the novel, tyrosyl-based human immunodeficiency virus (HIV) type 1 protease inhibitor brecanavir (GW640385) in combination with other antiretrovirals and against a panel of protease inhibitor-resistant HIV”, Antimicrob. Agents Chemother. 2007, 51: 3147-3154; and Pauwels et al., “Sensitive and rapid assay on MT-4 cells for the detection of antiviral compounds against the AIDS virus”, J. of Virological Methods 1987, 16: 171-185).
# Luciferase activity was measured 96 hours later by adding a cell titer glo (Promega, Madison, Wis.). Percent inhibition of cell protection data was plotted relative to no compound control. Under the same condition, cytotoxicity of the compounds was determined using cell titer Glo™ (Promega, Madison, Wis.). IC50s were determined from a 10 point dose response curve using 3-4-fold serial dilution for each compound, which spans a concentration range>1000 fold.
# These values are plotted against the molar compound concentrations using the standard four parameter logistic equation: y=((Vmax*x^n)/(K^n+x^n))+Y2
# Y2=minimum y n=slope factor
# Vmax=maximum y x=compound concentration [M]
row,Compound,IC50 [µM]
1,"Cc1nc2c(ccn2Cc2ccc(F)c(F)c2)c(-c2ccc3c(c2)CCCO3)c1[C@H](OC(C)(C)C)C(=O)O [Example 29, (S)-2-(tert-butoxy)-2-(4-(chroman-6-yl)-1-(3,4-difluorobenzyl)-6-methyl-1H-pyrrolo[2,3-b]pyridin-5-yl)acetic acid]",0.024
2,"Cc1cc(Cn2ccc3c(-c4ccc5c(c4)CCCO5)c(C(OC(C)(C)C)C(=O)O)c(C)nc32)ccc1F (stereo not drawn) [Example 30, 2-(tert-butoxy)-2-(4-(chroman-6-yl)-1-(4-fluoro-3-methylbenzyl)-6-methyl-1H-pyrrolo[2,3-b]pyridin-5-yl)acetic acid]",0.07
3,"Cc1nc2c(ccn2Cc2ccc(F)cc2Cl)c(-c2ccc3c(c2)CCCO3)c1C(OC(C)(C)C)C(=O)O (stereo not drawn) [Example 31, 2-(tert-butoxy)-2-(1-(2-chloro-4-fluorobenzyl)-4-(chroman-6-yl)-6-methyl-1H-pyrrolo[2,3-b]pyridin-5-yl)acetic acid]",0.04
4,"Cc1nc2c(ccn2Cc2cc(F)c(F)c(F)c2)c(-c2ccc3c(c2)CCCO3)c1C(OC(C)(C)C)C(=O)O (stereo not drawn) [Example 32, 2-(tert-butoxy)-2-(4-(chroman-6-yl)-6-methyl-1-(3,4,5-trifluorobenzyl)-1H-pyrrolo[2,3-b]pyridin-5-yl)acetic acid]",0.1
5,"Cc1nc2c(ccn2Cc2cc(F)ccc2F)c(-c2ccc3c(c2)CCCO3)c1C(OC(C)(C)C)C(=O)O (stereo not drawn) [Example 33, 2-(tert-butoxy)-2-(4-(chroman-6-yl)-1-(2,5-difluorobenzyl)-6-methyl-1H-pyrrolo[2,3-b]pyridin-5-yl)acetic acid]",0.096
6,"Cc1nc2c(ccn2Cc2cccc(F)c2F)c(-c2ccc3c(c2)CCCO3)c1C(OC(C)(C)C)C(=O)O (stereo not drawn) [Example 34, 2-(tert-butoxy)-2-(4-(chroman-6-yl)-1-(2,3-difluorobenzyl)-6-methyl-1H-pyrrolo[2,3-b]pyridin-5-yl)acetic acid]",0.06
7,"Cc1ccc(Cn2ccc3c(-c4ccc5c(c4)CCCO5)c(C(OC(C)(C)C)C(=O)O)c(C)nc32)cc1F (stereo not drawn) [Example 35, 2-(tert-butoxy)-2-(4-(chroman-6-yl)-1-(3-fluoro-4-methylbenzyl)-6-methyl-1H-pyrrolo[2,3-b]pyridin-5-yl)acetic acid]",0.42
8,"Cc1ccc(-c2c([C@@H](OC(C)(C)C)C(=O)O)c(C)nc3c2ccn3Cc2ccc(F)cc2F)cc1 [Example 36, (R)-2-(tert-butoxy)-2-(1-(2,4-difluorobenzyl)-6-methyl-4-(p-tolyl)-1H-pyrrolo[2,3-b]pyridin-5-yl)acetic acid]",50
9,"Cc1ccc(-c2c([C@H](OC(C)(C)C)C(=O)O)c(C)nc3c2ccn3Cc2ccc(F)cc2F)cc1 [Example 37, (S)-2-(tert-butoxy)-2-(1-(2,4-difluorobenzyl)-6-methyl-4-(p-tolyl)-1H-pyrrolo[2,3-b]pyridin-5-yl)acetic acid]",0.07
10,"COc1ccc(Cn2ccc3c(-c4ccc5c(c4)CCCO5)c(C(OC(C)(C)C)C(=O)O)c(C)nc32)cc1 (stereo not drawn) [Example 38, 2-(tert-butoxy)-2-(4-(chroman-6-yl)-1-(4-methoxybenzyl)-6-methyl-1H-pyrrolo[2,3-b]pyridin-5-yl)acetic acid]",0.12
11,"Cc1nc2c(ccn2Cc2ccccc2F)c(-c2ccc3c(c2)CCCO3)c1C(OC(C)(C)C)C(=O)O (stereo not drawn) [Example 39, 2-(tert-butoxy)-2-(4-(chroman-6-yl)-1-(2-fluorobenzyl)-6-methyl-1H-pyrrolo[2,3-b]pyridin-5-yl)acetic acid]",0.068
12,"Cc1nc2c(ccn2Cc2cccc(Cl)c2F)c(-c2ccc3c(c2)CCCO3)c1C(OC(C)(C)C)C(=O)O (stereo not drawn) [Example 40, 2-(tert-butoxy)-2-(1-(3-chloro-2-fluorobenzyl)-4-(chroman-6-yl)-6-methyl-1H-pyrrolo[2,3-b]pyridin-5-yl)acetic acid]",0.125
13,Cc1nc2c(ccn2Cc2ccc(C(F)(F)F)o2)c(-c2ccc3c(c2)CCCO3)c1C(OC(C)(C)C)C(=O)O (stereo not drawn) [Example 41],0.1
14,"Cc1nc2c(ccn2CCc2ccc(F)cc2)c(-c2ccc3c(c2)CCCO3)c1C(OC(C)(C)C)C(=O)O (stereo not drawn) [Example 42, 2-(tert-butoxy)-2-(4-(chroman-6-yl)-1-(4-fluorophenethyl)-6-methyl-1H-pyrrolo[2,3-b]pyridin-5-yl)acetic acid]",0.58
15,"Cc1nc2c(ccn2Cc2ccccc2)c(-c2ccc3c(c2)CCCO3)c1C(OC(C)(C)C)C(=O)O (stereo not drawn) [Example 43, 2-(1-benzyl-4-(chroman-6-yl)-6-methyl-1H-pyrrolo[2,3-b]pyridin-5-yl)-2-(tert-butoxy)acetic acid]",0.084
16,"Cc1nc2c(ccn2Cc2c(F)cc(F)cc2F)c(-c2ccc3c(c2)CCCO3)c1C(OC(C)(C)C)C(=O)O (stereo not drawn) [Example 44, 2-(tert-butoxy)-2-(4-(chroman-6-yl)-6-methyl-1-(2,4,6-trifluorobenzyl)-1H-pyrrolo[2,3-b]pyridin-5-yl)acetic acid]",0.053
17,"COc1ccc(Cn2ccc3c(-c4ccc5c(c4)CCCO5)c(C(OC(C)(C)C)C(=O)O)c(C)nc32)cc1F (stereo not drawn) [Example 45, 2-(tert-butoxy)-2-(4-(chroman-6-yl)-1-(3-fluoro-4-methoxybenzyl)-6-methyl-1H-pyrrolo[2,3-b]pyridin-5-yl)acetic acid]",0.055
18,"COc1ccc(F)c(F)c1Cn1ccc2c(-c3ccc(C)cc3)c(C(OC(C)(C)C)C(=O)O)c(C)nc21 (stereo not drawn) [Example 46, 2-(tert-butoxy)-2-(1-(2,3-difluoro-6-methoxybenzyl)-6-methyl-4-(p-tolyl)-1H-pyrrolo[2,3-b]pyridin-5-yl)acetic acid]",0.1
19,"Cc1nc2c(ccn2Cc2ccc(F)cc2Cl)c(-c2ccc3c(c2)CCCO3)c1[C@@H](OC(C)(C)C)C(=O)O [Example 47, (R)-2-(tert-butoxy)-2-(1-(2-chloro-4-fluorobenzyl)-4-(chroman-6-yl)-6-methyl-1H-pyrrolo[2,3-b]pyridin-5-yl)acetic acid]",50
20,"Cc1nc2c(ccn2Cc2ccc(F)cc2Cl)c(-c2ccc3c(c2)CCCO3)c1[C@H](OC(C)(C)C)C(=O)O [Example 48, (S)-2-(tert-butoxy)-2-(1-(2-chloro-4-fluorobenzyl)-4-(chroman-6-yl)-6-methyl-1H-pyrrolo[2,3-b]pyridin-5-yl)acetic acid]",0.03
21,"Cc1ccc(-c2c(C(OC(C)(C)C)C(=O)O)c(C)nc3c2ccn3Cc2c(Cl)ccc(F)c2F)cc1 (stereo not drawn) [Example 49, 2-(tert-butoxy)-2-(1-(6-chloro-2,3-difluorobenzyl)-6-methyl-4-(p-tolyl)-1H-pyrrolo[2,3-b]pyridin-5-yl)acetic acid]",0.123
22,"Cc1nc2c(ccn2Cc2c(Cl)cccc2Cl)c(-c2ccc3c(c2)CCCO3)c1C(OC(C)(C)C)C(=O)O (stereo not drawn) [Example 50, 2-(tert-butoxy)-2-(4-(chroman-6-yl)-1-(2,6-dichlorobenzyl)-6-methyl-1H-pyrrolo[2,3-b]pyridin-5-yl)acetic acid]",0.035
23,"Cc1nc2c(ccn2Cc2c(F)cccc2F)c(-c2ccc3c(c2)CCCO3)c1C(OC(C)(C)C)C(=O)O (stereo not drawn) [Example 51, 2-(tert-butoxy)-2-(4-(chroman-6-yl)-1-(2,6-difluorobenzyl)-6-methyl-1H-pyrrolo[2,3-b]pyridin-5-yl)acetic acid]",0.09
24,"COc1ccc(Cn2ccc3c(-c4ccc5c(c4)CCCO5)c(C(OC(C)(C)C)C(=O)O)c(C)nc32)cc1C(F)(F)F (stereo not drawn) [Example 52, 2-(tert-butoxy)-2-(4-(chroman-6-yl)-1-(4-methoxy-3-(trifluoromethyl)benzyl)-6-methyl-1H-pyrrolo[2,3-b]pyridin-5-yl)acetic acid]",0.37
